Measured values reported in the NIST ThermoML archive (doi:10.1021/acs.jced.7b00333).
Numbers after ± are expanded uncertainties.

Columns and labels:
[1] = Crystal; DTA
[2] = Molar enthalpy of transition or fusion; settings: Crystal; DSC

COc1cc(C(=O)O)cc(OC)c1O [4-hydroxy-3,5-dimethoxybenzoic acid]
Normal melting temperature [1]: 212.7 ± 1.1 °C | Molar enthalpy of transition or fusion [2]: 33.4 ± 1.5 kJ/mol
